Measured values: patent publication US9890139B2, “CYP17 inhibitors/antiandrogens” (Orion Corporation, priority 2013, dated 2018)
Like-named read-outs stand apart in the source and are kept apart here. Blank lines part the entries; values can stand above or below the compound they belong to.

Assays:
full-length human AR = molecular target: T1, full-length human AR (Homo sapiens, UniProt P10275); assay: AR antagonism, reporter gene assay in hAR/HEK293 cells; format: cell-based; details: HEK293 cells stably transfected with full-length human AR and androgen responsive luciferase reporter; co-treated with submaximal testosterone (usually 0.45 nM); 1% DMSO; triplicates
T1 construct: expression vector encoding full-length human AR; expressed in transfected cells; host or cells: HEK293 (hAR/HEK293 cells)
T1 sequence (P10275 1-920): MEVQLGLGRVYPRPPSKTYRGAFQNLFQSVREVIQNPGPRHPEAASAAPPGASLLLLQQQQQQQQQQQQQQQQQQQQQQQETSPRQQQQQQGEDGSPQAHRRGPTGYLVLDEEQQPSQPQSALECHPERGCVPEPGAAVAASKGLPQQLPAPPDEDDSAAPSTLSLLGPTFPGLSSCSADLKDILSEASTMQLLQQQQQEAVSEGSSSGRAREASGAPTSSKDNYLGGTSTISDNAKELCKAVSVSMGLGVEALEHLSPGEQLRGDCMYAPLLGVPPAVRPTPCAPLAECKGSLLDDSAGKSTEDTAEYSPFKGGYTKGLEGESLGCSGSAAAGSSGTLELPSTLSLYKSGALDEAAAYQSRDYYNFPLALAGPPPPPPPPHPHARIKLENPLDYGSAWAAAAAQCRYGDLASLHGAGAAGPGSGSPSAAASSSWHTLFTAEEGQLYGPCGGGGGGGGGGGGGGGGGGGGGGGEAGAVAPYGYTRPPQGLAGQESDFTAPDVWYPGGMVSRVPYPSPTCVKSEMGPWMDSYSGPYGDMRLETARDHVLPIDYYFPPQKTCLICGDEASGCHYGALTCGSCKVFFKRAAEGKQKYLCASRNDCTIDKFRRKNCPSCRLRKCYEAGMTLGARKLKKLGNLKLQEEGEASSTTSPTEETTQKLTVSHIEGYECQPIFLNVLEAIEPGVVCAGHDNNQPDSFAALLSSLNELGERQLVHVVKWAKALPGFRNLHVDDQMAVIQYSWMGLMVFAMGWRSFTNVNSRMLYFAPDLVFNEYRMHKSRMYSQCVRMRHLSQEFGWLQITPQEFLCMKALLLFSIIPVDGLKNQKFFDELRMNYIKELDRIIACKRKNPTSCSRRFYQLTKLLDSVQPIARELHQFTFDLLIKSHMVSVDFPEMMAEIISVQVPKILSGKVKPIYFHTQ
Experimental: Antagonism of test compounds for AR was measured by reporter gene assay in human embryonic kidney (HEK293) cells stably transfected with an expression vector encoding full-length human AR and androgen responsive luciferase reporter gene construct (hAR/HEK293 cells). To determine antagonism for hAR, the cells were treated simultaneously with increasing concentrations of the test compound and submaximal concentration of testosterone (usually 0.45 nM). The final DMSO concentration was 1%. All test compounds were studied in triplicates. The cells were incubated for […] before measurement of luciferase activity using Luciferase Assay System (Promega Corporation).

17,20 lyase (CYP17) = molecular target: T2, 17,20 lyase (CYP17) (Homo sapiens, UniProt P05093); assay: 17,20 lyase (CYP17) inhibition, acetic acid release assay (AARA) on H295R cells; format: cell-based
T2 construct: endogenous in cells; host or cells: H295R human adrenocortical carcinoma cells
T2 sequence (P05093 1-508): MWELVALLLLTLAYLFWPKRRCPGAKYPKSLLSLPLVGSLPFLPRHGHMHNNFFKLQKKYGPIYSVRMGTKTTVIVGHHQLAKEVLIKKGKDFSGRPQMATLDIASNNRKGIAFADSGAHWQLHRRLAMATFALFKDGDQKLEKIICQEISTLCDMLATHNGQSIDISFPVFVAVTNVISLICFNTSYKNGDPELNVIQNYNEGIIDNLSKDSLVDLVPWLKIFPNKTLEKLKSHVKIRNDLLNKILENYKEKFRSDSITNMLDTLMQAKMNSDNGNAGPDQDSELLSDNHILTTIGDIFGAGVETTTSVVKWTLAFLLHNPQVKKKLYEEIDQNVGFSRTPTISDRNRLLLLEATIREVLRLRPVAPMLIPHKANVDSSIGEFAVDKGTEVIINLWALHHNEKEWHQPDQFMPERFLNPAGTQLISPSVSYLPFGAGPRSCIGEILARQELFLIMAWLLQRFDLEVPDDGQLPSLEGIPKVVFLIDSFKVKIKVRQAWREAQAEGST
Experimental: The ability of the test compounds to inhibit 17,20 lyase catalysed conversion of 17α-hydroxypregnenolone to dehydroepiandrosterone and acetic acid was measured by acetic acid release assay (AARA) on human H295R adrenocortical carcinoma cell line (Grigoryev, D. N. et al., Analytical Biochemistry 1999; 267:319-330). […] The final DMSO concentration was 1%. Cell culture medium was extracted with dextran-coated charcoal suspension (Isomaa, V. et al., Endocrinology 1982; 111(3):833-843). ^3H-acetic acid was determined by mixing 100 μl of supernatant fraction in 200 μl of scintillation fluid (OptiPhase SuperMix, Perkin Elmer). Radioactivity was measured using a Microbeta scintillation counter (1450 MicroBeta Trilux, Wallac). All the test compounds were studied in quadruplicates.

[1] = human H295R adrenocortical carcinoma cells, overnight (16-19 h) with 17α-[21-3H]hydroxypregnenolone, 3H-acetic acid release, 1% DMSO, quadruplicates, read-out: CYP17 inhibition IC50

SMILES: CCN(c1ccc(C#N)c(C(F)(F)F)c1)C1CC=C(c2cncn2C(C)C)C1 (single isomer, unassigned) [Ex. 51 enantiomer 2, 4-(Ethyl(3-(1-isopropyl-1H-imidazol-5-yl)cyclopent-3-enyl)amino)-2-(trifluoromethyl)benzonitrile]
IC50 (full-length human AR): 0.017 µM
IC50 (17,20 lyase (CYP17)): 0.166 µM

SMILES: CCN(c1ccc(C#N)c(C(F)(F)F)c1)C1CCC(n2ccnc2)C1 (single isomer, unassigned) [Ex. 86 trans-enantiomer 1, 4-((-3-(1H-imidazol-1-yl)cyclopentyl)(ethyl)amino)-2-(trifluoromethyl)benzonitrile]
IC50 (full-length human AR): 0.073 µM
IC50 (17,20 lyase (CYP17)): 0.027 µM

IC50 (full-length human AR): 0.017 µM
IC50 (17,20 lyase (CYP17); [1]): 0.016 µM
SMILES: Cc1nc(N(C)C2C=C(n3ccnc3)CCC2(C)C)ccc1[N+](=O)[O-] (single isomer, unassigned) [Ex. 203 enantiomer 1, N-[3-(1H-Imidazol-1-yl)-6,6-dimethylcyclohex-2-enyl]-N,6-dimethyl-5-nitropyridin-2-amine]

SMILES: CCN(c1ccc(C#N)c(C(F)(F)F)c1)C1CC=C(c2cnco2)C1 (single isomer, unassigned) [Ex. 233 enantiomer 1, 4-(Ethyl(3-(oxazol-5-yl)cyclopent-3-enyl)amino)-2-(trifluoromethyl)benzonitrile]
IC50 (full-length human AR): 0.059 µM
IC50 (17,20 lyase (CYP17)): 0.066 µM

SMILES: CN(c1ccc(C#N)c(C(F)F)c1)C1C=C(n2ccnc2)CCC1(C)C (single isomer, unassigned) [Ex. 240(b), 4-((3-(1H-imidazol-1-yl)-6,6-dimethylcyclohex-2-enyl)(methyl)amino)-2-(difluoromethyl)benzonitrile (pure enantiomer)]
IC50 (full-length human AR): 0.052 µM
IC50 (17,20 lyase (CYP17); [1]): 0.033 µM

SMILES: CCN(c1ccc(C#N)c(C(F)(F)F)c1)C1CC(CO)=C(n2ccnc2)C1(C)C (single isomer, unassigned) [Ex. 270 enantiomer 1, 4-(Ethyl(4-(hydroxymethyl)-3-(1H-imidazol-1-yl)-2,2-dimethylcyclopent-3-en-1-yl)amino)-2-(trifluoromethyl)benzonitrile]
IC50 (full-length human AR): 0.056 µM
IC50 (17,20 lyase (CYP17)): 0.321 µM

SMILES: CCN(c1ccc(C#N)c(Cl)c1)C1CCCC(n2ccnc2)C1 (single isomer, unassigned; diastereomer 4) [Ex. 91 cis-diastereomer, 4-((3-(1H-imidazol-1-yl)cyclohexyl)(ethyl)amino)-2-chlorobenzonitrile]
IC50 (full-length human AR): 0.064 µM
IC50 (17,20 lyase (CYP17)): 0.036 µM

SMILES: CCN(c1ccc(C#N)c(C(F)(F)F)c1)C1CCCC(n2cncn2)C1 (single isomer, unassigned; diastereomer 4) [Ex. 209 cis-diastereomer, 4-((3-(1H-1,2,4-triazol-1-yl)cyclohexyl)(ethyl)amino)-2-(trifluoromethyl)-benzonitrile]
IC50 (full-length human AR): 0.056 µM
IC50 (17,20 lyase (CYP17)): 0.154 µM

SMILES: CCN(c1ccc(C#N)c(Cl)c1)C1C=C(n2ccnc2)CCC1(C)C (single isomer, unassigned; enantiomer 1) [Ex. 21, 4-((3-(1H-imidazol-1-yl)-6,6-dimethylcyclohex-2-enyl)(ethyl)amino)-2-chlorobenzonitrile (enantiomer 1)]
IC50 (full-length human AR): 0.019 µM
IC50 (17,20 lyase (CYP17)): 0.076 µM

SMILES: CN(c1ccc(C#N)c(Cl)c1)[C@@H]1C=C(n2ccnc2)[C@H](O)CC1(C)C (single isomer, unassigned; enantiomer 1) [Ex. 253(b), cis-2-Chloro-4-{[4-hydroxy-3-(1H-imidazol-1-yl)-6,6-dimethylcyclohex-2-enyl](methyl)amino}benzonitrile (enantiomer 1)]
IC50 (full-length human AR): 0.14 µM
IC50 (17,20 lyase (CYP17)): 0.124 µM

SMILES: CCN(c1ccc(C#N)c(C(F)(F)F)c1)C1CCC=C(c2ccncc2OC)C1 (single isomer, unassigned; isomer 4) [Ex. 84 3,4-isomer, 4-(Ethyl(3-(3-methoxypyridin-4-yl)cyclohex-3-en-1-yl)amino)-2-(trifluoromethyl)benzonitrile]
IC50 (full-length human AR): 0.05 µM
IC50 (17,20 lyase (CYP17)): 0.096 µM

SMILES: CCN(c1ccc(C#N)c(C(F)(F)F)c1)C1CCC=C(c2cncn2CC)C1 (single isomer, unassigned; isomer 4) [Ex. 208 1,5-isomer, 4-(ethyl(3-(1-ethyl-1H-imidazol-5-yl)cyclohex-3-en-1-yl)-amino)-2-(trifluoromethyl)benzonitrile]
IC50 (full-length human AR): 0.034 µM
IC50 (17,20 lyase (CYP17)): 0.137 µM

SMILES: CCN(c1ccc(C#N)c(C(F)(F)F)c1)C1C=C(n2ccnc2)CCC1 (centres unmarked) [Ex. 63, 4-((3-(1H-imidazol-1-yl)cyclohex-2-en-1-yl)(ethyl)amino)-2-(trifluoromethyl)benzonitrile]
IC50 (full-length human AR): 0.034 µM
IC50 (17,20 lyase (CYP17)): 0.07 µM

SMILES: CCCn1cncc1C1=CCC(N(CC)c2ccc(C#N)c(C(F)(F)F)c2)C1 (centres unmarked) [Ex. 103, 4-(Ethyl(3-(1-propyl-1H-imidazol-5-yl)cyclopent-3-en-1-yl)amino)-2-(trifluoromethyl)benzonitrile]
IC50 (full-length human AR): 0.058 µM
IC50 (17,20 lyase (CYP17)): 0.029 µM

SMILES: CCN(c1ccc(C#N)c(C(F)(F)F)c1)C1C=C(n2ccnc2)C2(CC1)CC2 (centres unmarked) [Ex. 107, 4-((4-(1H-imidazol-1-yl)spiro[2.5]oct-4-en-6-yl)(ethyl)amino)-2-(trifluoromethyl)benzonitrile]
IC50 (full-length human AR): 0.051 µM
IC50 (17,20 lyase (CYP17)): 0.033 µM

SMILES: CCN(c1ccc(C#N)c(C(F)(F)F)c1)[C@@H]1CCCN(c2ccncc2F)C1 [Ex. 160, (R)-4-(Ethyl(1-(3-fluoropyridin-4-yl)piperidin-3-yl)amino)-2-(trifluoromethyl)benzonitrile]
IC50 (full-length human AR): 0.027 µM
IC50 (17,20 lyase (CYP17)): 0.111 µM

SMILES: CN(c1ccc(C#N)c(C(F)(F)F)n1)C1C=C(n2ccnc2)CCC1(C)C (centres unmarked) [Ex. 250, 6-{[3-(1H-Imidazol-1-yl)-6,6-dimethylcyclohex-2-enyl](methyl)amino}-2-(trifluoromethyl)nicotinonitrile]
IC50 (full-length human AR): 0.205 µM
IC50 (17,20 lyase (CYP17); [1]): 0.027 µM

IC50 (full-length human AR): 0.141 µM
IC50 (17,20 lyase (CYP17); [1]): 0.033 µM
SMILES: COc1cc(N(C)C2C=C(n3ccnc3)CCC2(C)C)ccc1C#N (centres unmarked) [Ex. 252, 4-{[3-(1H-Imidazol-1-yl)-6,6-dimethylcyclohex-2-enyl](methyl)amino}-2-methoxybenzonitrile]

SMILES: CCN(c1ccc(C#N)c(C(F)(F)F)c1)C1CC=C(n2ccnc2)C1(C)C (centres unmarked) [Ex. 275, 4-((3-(1H-imidazol-1-yl)-2,2-dimethylcyclopent-3-en-1-yl)(ethyl)amino)-2-(trifluoromethyl)benzonitrile]
IC50 (full-length human AR): 0.063 µM
IC50 (17,20 lyase (CYP17)): 0.082 µM
